Measured values as given in US11299480B2, “2-arylsulfonamido-N-arylacetamide derivatized STAT3 inhibitors” (University of Hawaii, priority 2017, dated 2022).
Entries after “also recorded” stand apart in the source; their conditions may differ. Where two headings read alike, the source gives them in different places.

Experiments:
Stat3 [1] = molecular target: Stat3 (Mus musculus, UniProt P42227); assay type: biochemical
Experimental: FIG. 1. Effect of select compounds of the present invention on Stat3 DNA-binding activity in vitro. […] Positions of Stat3:DNA complexes in gel are labeled; control lanes (0) represent nuclear extracts pre-treated with 10% DMSO.
(§1) Except where indicated, nuclear extracts were pre-incubated with compound for 30 min at room temperature prior to incubation with the radiolabeled probe for 30 min at 30° C. before subjecting to EMSA analysis. Where appropriate, bands corresponding to Stat3:DNA complexes were scanned and quantified for each concentration of compound using ImageJ and plotted as percent of control (DMSO) against concentration of compound, from which the IC50 values were derived.

Stat5 = Stat5 DNA-binding activity in vitro, EMSA (MGFe probe); assay type: biochemical; details: 10 μM or 0-30 μM compound
Text: FIG. 2. […] Positions of Stat:DNA complexes in gel are labeled; control lanes (0 or Con) represent nuclear extracts pre-treated with 10% DMSO. […] Where appropriate, bands corresponding to Stat3:DNA complexes were scanned and quantified for each concentration of compound using ImageJ and plotted as percent of control (DMSO) against concentration of compound, from which the IC50 values were derived.

Stat1 = Stat1 DNA-binding activity in vitro, EMSA (MGFe probe); assay type: biochemical; details: for effect on Stat1 DNA-binding activity: 10 μM or 0-30 μM compound
Text: FIG. 2. Effects of select compounds of the present invention on Stat1 and Stat5 DNA-binding activity. […] Positions of Stat:DNA complexes in gel are labeled; control lanes (0 or Con) represent nuclear extracts pre-treated with 10% DMSO. Data are representative of 1-3 independent determinations. […] Where appropriate, bands corresponding to Stat3:DNA complexes were scanned and quantified for each concentration of compound using ImageJ and plotted as percent of control (DMSO) against concentration of compound, from which the IC50 values were derived. In order to determine the specificity of select new analogs active against Stat3 activity, the inventors investigated the effects on the inhibition of other STAT family members, including Stat1 and Stat5 DNA-binding activity in vitro.

pY705Stat3 [2] = experiment: Constitutive Stat3 tyrosine phosphorylation, immunoblot, MDA-MB-231 cells; assay type: cell-based, human; details: for pY705Stat3 levels: MDA-MB-231, 5 μM, 1 h treatment
Experimental: (§2) FIG. 3. Effects of select compounds of the present invention on Stat3 DNA-binding activity and Stat3 tyrosine phosphorylation in cells. (FIG. 3A) EMSA analysis of Stat3 DNA-binding activity in nuclear extracts of equal total protein prepared from cells treated with DMSO (0 as control, Con), 5 or 10 μM of compounds for 1-34 h. Positions of Stat3:DNA complexes in gel are labeled. […] Positions of Stat3:DNA complexes or proteins in gel are shown; control (0 or Con) lane represents whole-cell lysates or nuclear extracts prepared from 0.05% DMSO-treated cells. […] Data are representative of 2-3 independent determinations.
(§3) All antibodies tested were purchased from Cell Signaling Technology.
(§4) Altogether, the new analogs show strong, albeit variable degrees of inhibition of constitutive Stat3 DNA-binding activity and Tyr phosphorylation in human tumor cells.

pY705Stat3 [3] = experiment: Constitutive Stat3 tyrosine phosphorylation, immunoblot, MDA-MB-468 cells; assay type: cell-based, human; details: for pY705Stat3 levels: MDA-MB-468, 5 μM, 1 h treatment (inhibition stated only for MDA-MB-231)
Experimental: as §2, §3, §4

MDA-MB-231 [4] = experiment: Cell growth, trypan blue exclusion/phase-contrast microscopy, MDA-MB-231; assay type: cell-based, human
Experimental: (§5) FIG. 5. Effects of select compounds of the present invention on cell viability, growth, colony survival and migration in vitro. […] Cell numbers were counted by trypan blue exclusion/phase-contrast microscopy every […], and cell growth curve was plotted.
(§6) Cells in 6-well or 96-well plates were treated with or without compounds for the indicated concentrations and time, and subjected to MTT assay or CyQuant cell proliferation assay (Invitrogen/ThermoFisher Scientific), or harvested and the viable cells were counted by trypan blue exclusion with phase-contrast microscopy.
(§7) Constitutive Stat3 activity promotes tumor cell growth and proliferation and survival (Darnell J E (2005) Nat Med. 11:595-6; Bowman T, et al., (2000) Oncogene 19:2474-2488). Some of the compounds of the present invention were tested against tumor cells harboring constitutively-active Stat3.

NIH3T3 mouse fibroblasts = experiment: Cell growth, trypan blue exclusion/phase-contrast microscopy, NIH3T3; assay type: cell-based; details: NIH3T3 (no aberrantly-active Stat3), trypan blue exclusion, 72 h
Experimental: as §5, §6, §7

MDA-MB-231 [5] = experiment: CyQuant cell viability assay, MDA-MB-231; assay type: cell-based, human; details: MDA-MB-231, CyQuant, 0-10 μM, 72 h
Experimental: (§8) FIG. 6. Effects of select compounds of the present invention on cell viability. […] Cells were first grown in 6-well plates then were treated once with 0-10 μM of the indicated compounds for 72 h. Viable cells were assayed using CyQuant cell proliferation kit and plotted as % cell viability against concentration. Control (0) represents 0.05% DMSO-treated cells. Values, mean ± S.D. of 2-3 independent determinations.
as §6, §7

MDA-MB-468 = experiment: CyQuant cell viability assay, MDA-MB-468; assay type: cell-based, human; details: MDA-MB-468, CyQuant, 0-10 μM, 72 h
Experimental: as §8, §6, §7

MCF7 = experiment: CyQuant cell viability assay, MCF7; assay type: cell-based, human; details: 72 h; for cell viability: MCF7 (no aberrantly-active Stat3), CyQuant
Experimental: as §8, §6, §7

Stat3 [6] = molecular target: Stat3 (Homo sapiens (Human), UniProt P40763); experiment: Stat3 DNA-binding activity in nuclear extracts of treated MDA-MB-231 cells, EMSA; assay type: cell-based; details: 10 μM
Experimental: as §2
as §1, with “The ^32P-labeled oligonucleotide probes used were hSIE (high affinity sis-inducible element from the c-fos gene, m67 variant, 5′-[…]) (SEQ ID NO: 1) that binds Stat1 and Stat3 and MGFe (mammary gland factor element from the bovine β-casein gene promoter, 5′-[…]) (SEQ ID NO: 2) for Stat1 and Stat5 binding. Except” for “Except”
Select compounds of the invention were investigated for their inhibitory effects of the active analogs on intracellular Stat3 signaling. […] Nuclear extracts were prepared and subjected to EMSA analysis for Stat3 DNA-binding activity. […] Stat3 DNA-binding activity in MDA-MB-231 cells was inhibited by both Examples 1 and 5 following treatment at 3 h, with little change at 1 h (FIG. 3A).

pY705Stat3 [7] = experiment: Constitutive Stat3 Tyr705 phosphorylation, immunoblot, C8161 metastatic melanoma cells; assay type: cell-based, human; details: C8161, 10 or 20 μM for 1 and 3 h
Experimental: as §2, §3, §4

pY705Stat3 [8] = experiment: Constitutive Stat3 Tyr705 phosphorylation, immunoblot, 1205LU metastatic melanoma cells; assay type: cell-based, human; details: 10 or 20 μM for 1 and 3 h
Experimental: as §2, §3, §4

pY705Stat3 [9] = experiment: Constitutive Stat3 Tyr705 phosphorylation, immunoblot, UACC903 metastatic melanoma cells; assay type: cell-based, human; details: UACC903, 10 or 20 μM for 1 and 3 h
Experimental: as §2, §3, §4

MEF/Stat3−/− = experiment: Cell viability, Stat3 null mouse embryonic fibroblasts; assay type: cell-based; details: 48-72 h
Experimental: as §5, §6, §7

C8161 = experiment: Cell viability, C8161 metastatic melanoma cells; assay type: cell-based, human; details: C8161, 48 h, 10 and 20 micromolar
Experimental: as §5, §6, §7

1205LU = experiment: Cell viability, 1205LU metastatic melanoma cells; assay type: cell-based, human; details: 48 h, 10 and 20 micromolar
Experimental: as §5, §6, §7

C81-61 = experiment: Cell viability, C81-61 melanoma cells; assay type: cell-based, human; details: C81-61, 48 h, 10 and 20 micromolar
Experimental: as §5, §6, §7

AR7119 = experiment: Cell viability, immortalized normal melanocytes AR7119; assay type: cell-based, human; details: AR7119 (no aberrant Stat3 activation), 48 h
Experimental: as §5, §6, §7

pJak2 = experiment: Stat3-independent signaling, immunoblot of pJak2, MDA-MB-231 cells; assay type: cell-based, human; details: MDA-MB-231, 5 μM, 24 h treatment
Text: (§9) FIG. 4. Effects of select compounds of the present invention on Stat3-independent signal transduction events. […] Positions of proteins in gel are labeled; control lane (Con) represents whole-cell lysate prepared from 0.05% DMSO-treated cells.
as §3, §4

pSrc = experiment: Stat3-independent signaling, immunoblot of pSrc, MDA-MB-231 cells; assay type: cell-based, human; details: MDA-MB-231, 5 μM, 24 h treatment
Text: as §9, §3, §4

pERK1/2 = experiment: Stat3-independent signaling, immunoblot of pERK1/2, MDA-MB-231 cells; assay type: cell-based, human; details: MDA-MB-231, 5 μM, 24 h treatment
Text: as §9, §3, §4

[10] = EMSA, read-out: IC50, inhibition of Stat3 DNA-binding activity in vitro

Stat3 (Mus musculus, UniProt P42227), sequence (P42227 2-770 limits assumed): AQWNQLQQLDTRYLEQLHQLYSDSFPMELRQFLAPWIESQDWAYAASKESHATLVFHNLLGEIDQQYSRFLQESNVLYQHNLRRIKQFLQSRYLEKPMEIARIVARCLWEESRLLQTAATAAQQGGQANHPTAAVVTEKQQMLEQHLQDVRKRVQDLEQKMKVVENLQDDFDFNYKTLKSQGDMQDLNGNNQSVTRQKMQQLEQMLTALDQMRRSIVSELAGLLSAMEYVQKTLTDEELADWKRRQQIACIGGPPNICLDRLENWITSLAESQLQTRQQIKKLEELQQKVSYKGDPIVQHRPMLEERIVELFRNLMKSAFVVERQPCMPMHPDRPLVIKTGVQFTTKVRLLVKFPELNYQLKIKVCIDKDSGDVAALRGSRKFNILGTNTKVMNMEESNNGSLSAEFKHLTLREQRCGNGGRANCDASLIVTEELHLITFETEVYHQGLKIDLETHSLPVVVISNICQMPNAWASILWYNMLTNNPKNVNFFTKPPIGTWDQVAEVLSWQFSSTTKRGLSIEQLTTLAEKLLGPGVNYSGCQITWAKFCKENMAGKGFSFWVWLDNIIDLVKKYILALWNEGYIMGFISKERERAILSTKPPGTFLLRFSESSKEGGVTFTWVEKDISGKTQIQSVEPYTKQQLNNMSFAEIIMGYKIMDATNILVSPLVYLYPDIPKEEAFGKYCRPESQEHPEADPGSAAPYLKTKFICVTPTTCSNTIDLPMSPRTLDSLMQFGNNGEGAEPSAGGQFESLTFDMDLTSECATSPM
Stat3 (Homo sapiens (Human), UniProt P40763), sequence (P40763 whole entry): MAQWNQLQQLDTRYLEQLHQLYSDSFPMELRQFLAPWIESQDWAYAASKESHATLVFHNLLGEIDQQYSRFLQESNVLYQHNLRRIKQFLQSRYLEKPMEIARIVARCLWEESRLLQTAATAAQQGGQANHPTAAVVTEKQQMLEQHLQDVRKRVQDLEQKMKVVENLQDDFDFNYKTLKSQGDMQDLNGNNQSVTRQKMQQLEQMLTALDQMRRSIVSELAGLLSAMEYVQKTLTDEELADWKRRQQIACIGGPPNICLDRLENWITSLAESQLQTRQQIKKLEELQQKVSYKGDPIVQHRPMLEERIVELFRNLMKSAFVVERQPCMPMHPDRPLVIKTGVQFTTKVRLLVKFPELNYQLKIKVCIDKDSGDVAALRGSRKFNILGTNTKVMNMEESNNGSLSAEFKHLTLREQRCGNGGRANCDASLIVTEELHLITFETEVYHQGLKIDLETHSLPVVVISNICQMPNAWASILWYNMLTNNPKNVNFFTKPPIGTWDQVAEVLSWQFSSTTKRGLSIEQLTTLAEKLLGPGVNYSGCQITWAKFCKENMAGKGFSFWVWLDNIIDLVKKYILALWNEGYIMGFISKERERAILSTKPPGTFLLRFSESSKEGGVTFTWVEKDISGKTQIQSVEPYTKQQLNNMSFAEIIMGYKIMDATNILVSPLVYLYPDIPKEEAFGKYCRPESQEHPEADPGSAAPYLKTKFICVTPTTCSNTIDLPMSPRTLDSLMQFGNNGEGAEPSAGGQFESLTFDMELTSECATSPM

Compound | IC50 (Stat3 [1]; [10]) [nM] | effect on Stat5 DNA-binding activity (Stat5) | effect on Stat1 DNA-binding activity (Stat1) | cell viability (MDA-MB-231 [5]) | cell viability (MDA-MB-468) | cell viability (MCF7) | pY705Stat3 levels (pY705Stat3 [2]) | pY705Stat3 levels (pY705Stat3 [3]) | effect on pJak2 (pJak2) | effect on pSrc (pSrc) | effect on pERK1/2 (pERK1/2) | further results
C[C@H](C(=O)N(Cc1ccc(C2CCCCC2)cc1)c1ccc(C(=O)O)cc1F)N(C)S(=O)(=O)c1c(F)c(F)c(F)c(F)c1F [Example 37, (R)-4-(N-(4-cyclohexylbenzyl)-2-((2,3,4,5,6-pentafluoro-N-methylphenyl)sulfonamido)propanamido)-3-fluorobenzoic acid] | 1800 ± 940 | no measureable effect | no measureable effect | suppressed the viability | suppressed the viability | only weakly or not inhibited | – | – | – | – | – | constitutive pY705Stat3 levels (pY705Stat3 [2]; MDA-MB-231, treatment for 1 h): strongly inhibited; constitutive pY705Stat3 levels (pY705Stat3 [3]; MDA-MB-468, treatment for 1 h): strongly inhibited; IC50 (MDA-MB-231 [4]; Homo sapiens, MDA-MB-231, 72 h): 3900 nM; cell growth, time- or dose-dependent (MDA-MB-231 [4]; printed as MDA-MB-231 and/or MDA-MB-468, trypan blue exclusion, 3 μM Example 37 or 5 μM Example 25, 0-96 h): suppressed; IC50 (NIH3T3 mouse fibroblasts): 5100 nM; toxicity to MCF7 cells (MCF7; 10 μM): general toxicity
C[C@H](C(=O)N(Cc1ccc(C2CCCCC2)cc1)c1ccc(C(=O)O)c(O)c1)N(C)S(=O)(=O)c1c(F)c(F)c(F)c(F)c1F [Example 1, (R)-4-(N-(4-Cyclohexylbenzyl)-2-((2,3,4,5,6-pentafluoro-N-methylphenyl)sulfonamido)propan-amido)-2-hydroxybenzoic acid] | – | also disrupted Stat5 DNA-binding activity; also recorded: concentration-dependent | only weakly affected | suppressed the viability | suppressed the viability | – | inhibited pY705Stat3 levels | only inhibited pY705Stat3 levels in MDA-MB-231 | – | – | – | concentration at which a non-specific effect on Stat1 DNA-binding activity was observed (Stat1; 10 vs 30 μM): 30 µM; Stat3 DNA-binding activity in MDA-MB-231 cells (Stat3 [6]; 1 h treatment): little change; Stat3 DNA-binding activity in MDA-MB-231 cells (Stat3 [6]; 3 h treatment): inhibited; constitutive Stat3 Tyr705 phosphorylation (pY705Stat3 [7]): strongly inhibited; constitutive Stat3 Tyr705 phosphorylation (pY705Stat3 [8]): strongly inhibited; constitutive Stat3 Tyr705 phosphorylation (pY705Stat3 [9]): strongly inhibited; cell viability (MEF/Stat3−/−): only weakly inhibited the viability; cell viability (C8161): strongly inhibited the viability; cell viability (1205LU): strongly inhibited the viability; cell viability (C81-61): strongly inhibited the viability; cell viability (AR7119): relatively weaker activity
Cc1cc(C(=O)O)ccc1N(Cc1ccc(C2CCCCC2)cc1)C(=O)[C@@H](C)N(C)S(=O)(=O)c1c(F)c(F)c(F)c(F)c1F [Example 42, (R)-4-(N-(4-cyclohexylbenzyl)-2-((2,3,4,5,6-pentafluoro-N-methylphenyl)sulfonamido)propanamido)-3-methylbenzoic acid] | – | – | – | – | – | – | – | – | little effect | little effect | little effect | –
O=C(O)c1ccc(N(Cc2ccc(C3CCCCC3)cc2)C(=O)[C@H]2CCCN2S(=O)(=O)c2c(F)c(F)c(F)c(F)c2F)cc1O [Example 25, (R)-4-(N-(4-Cyclohexylbenzyl)-1-((pentafluorophenyl)sulfonyl)pyrrolidine-2-carboxamido)-2-hydroxybenzoic acid] | 2400 | – | – | suppressed the viability | suppressed the viability | only weakly or not inhibited | inhibited pY705Stat3 levels | only inhibited pY705Stat3 levels in MDA-MB-231 | – | – | – | IC50 (Stat3 [1]; Stat3 DNA-binding activity in vitro, nuclear extracts pre-incubated with compound 30 min at room temperature, hSIE probe, read-out: EMSA IC50): 2400 ± 400 nM
C[C@H](C(=O)N(Cc1ccc(C2CCCCC2)cc1)c1ccc(C(=O)O)cc1Cl)N(C)S(=O)(=O)c1c(F)c(F)c(F)c(F)c1F [Example 40, (R)-3-chloro-4-(N-(4-cyclohexylbenzyl)-2-((2,3,4,5,6-pentafluoro-N-methylphenyl)sulfonamido)propanamido)benzoic acid] | – | – | – | – | – | – | – | – | little effect | little effect | little effect | –
